Source: patent publication US20240180803A1, “HYALURONIC ACID-PRODUCTION PROMOTER” (NISSIN FOODS HOLDINGS CO., LTD., priority 2021, published 2024)

Test system: normal human dermal fibroblasts (NHDF)
Test: Production capacity evaluation test of hyaluronic acid in cultured cells
Type: cell-based
Details: for production capacity of hyaluronic acid with the NC taken as 100%: NHDF, 24 hours, culture supernatant; for Amount of hyaluronic acid produced obtained by subtracting NC / Measured value (amount of hyaluronic acid in the culture supernatant): NHDF culture supernatant; for Measured value (amount of hyaluronic acid in the culture supernatant): NC 942
Experimental: Reagents were first prepared. […] Next, preparation of cultured cells was performed. In Example, the preparation was performed with normal human dermal fibroblasts (NHDF). First, using Dulbecco's Modified Eagle Medium (DMEM, manufactured by Gibco) to which 10% heat-inactivated FBS (manufactured by Biowest) and penicillin-streptomycin (manufactured by Invitrogen) were added, NHDF was cultured under the conditions of 37° C., 5% CO2. NHDF cells were then seeded to a 24-well plate at 1.0×10^5 cells/well. Thereafter, the NHDF cells were cultured for 72 hours under the conditions mentioned above. After the cell culture, the culture supernatant was replaced with DMEM containing no FBS. […] Note that in cultured cells, the concentration is not related to an absorption rate, which is applied to oral intake. […] After the addition of the reagent or reagents, the cells were cultured for 24 hours under the conditions of 37° C., 5% CO2. The medium was recovered after culturing, and the concentration of the hyaluronic acid in the culture supernatant was measured using Hyaluronan DuoSet Kit (manufactured by R&D Systems). Note that the cell culture without reagent was set as a negative control (NC) in Example. […] Here, the cell culture without reagent was set as a negative control (NC), and the amount (ng/mL) of hyaluronic acid produced was determined by subtracting the amount of hyaluronic acid produced of the NC from the amount of hyaluronic acid produced of each compound with reagent.

SMILES | production capacity of hyaluronic acid with the NC taken as 100% (0.001 μM final concentration) | production capacity of hyaluronic acid with the NC taken as 100% (0.01 μM final concentration) | production capacity of hyaluronic acid with the NC taken as 100% (0.05 μM final concentration) | production capacity of hyaluronic acid with the NC taken as 100% (0.1 μM final concentration) | production capacity of hyaluronic acid with the NC taken as 100% (1 μM final concentration) | promotion capacity of hyaluronic acid production (in words) (concentrations of 0.01 mM or less and of 1 mM) | Amount of hyaluronic acid produced obtained by subtracting NC (final concentration 1 mM) | Measured value (amount of hyaluronic acid in the culture supernatant) (final concentration 1 mM) | promotion of hyaluronic acid production (in words) (any concentration tested (0.001 to 1 mM)) | promotion capacity of hyaluronic acid production (in words) (concentrations from 0.01 to 0.05 mM) | amount of hyaluronic acid produced compared with substances having similar chemical structures (in words) (final concentration 1 mM)
CCCCCCCCCCCCCCCCCCCC(=O)O [Arachidic acid, arachidic acid] | 111% | 122% | 102% | 107% | 127% | high promotion capacity of production | – | – | – | – | –
O=c1c(-c2ccc(O)cc2)coc2cc(O)ccc12 [Daidzein, daidzein, reference compound] | – | – | – | – | – | – | 0 ng/mL | 891 ng/mL | – | – | –
O=C(/C=C/c1ccc(O)cc1)c1ccc(O)cc1O [Isoliquiritigenin, isoliquiritigenin] | – | 142% | 138% | – | 127% | – | 562.7006 ng/mL | 1504 ng/mL | promotion of hyaluronic acid production was confirmed | remarkably high promotion capacity of production | the highest
O=C1C[C@@H](c2ccc(O)cc2)Oc2cc(O)ccc21 [Liquiritigenin, liquiritigenin, reference compound] | – | – | – | – | – | – | 164.725 ng/mL | 1106 ng/mL | – | – | –
O=C(O)/C=C/c1ccc(O)cc1 [trans-p-coumaric Acid, Trans-p-coumaric acid, reference compound] | – | – | – | – | – | – | 275.4202 ng/mL | 1217 ng/mL | – | – | –
